Values of other authors in US20170245495A1, “CHEMICAL LURE FOR ASIAN CITRUS PSYLLID” (The Regents of the University of California, priority 2014, published 2017).
Like-named read-outs stand apart in the source and are kept apart here.

Tested on: D. citri
Conditions: Mann et al. 2012, Patt and Setamou 2010

Row | SMILES | attraction of D. citri (literature) | attraction of D. citri (literature) (listed as MeSA)
1 | C=CC(C)(O)CCC=C(C)C (stereo not shown) [linalool] | attractive to D. citri | –
2 | COC(=O)c1ccccc1O [methyl salicylate] | implicated as D. citri attractants | attractant for D. citri
3 | C=C/C(C)=C/CC=C(C)C [β-ocimene, (E)-β-ocimene] | attractive to D. citri | –
